Test results published in PubChem BioAssay AID1902 (Broad Institute, 2009).
Calls of active or inactive are those of the source.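 Rule for the calls: active = EC50 no more than a set limit of log units above the highest dose; inactive = the rest.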

Target: S. pyogenes SKKanGAS, kanamycin survival, BacTiterGlo, 6 h
Assay: S. pyogenes SKKanGAS kanamycin growth inhibitors – SKKanGAS strain, luminescence, dose confirmation, streptokinase promoter inhibitor project, dose response (AID 1902);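 note: lower survival reflects blocked streptokinase promoter driving kanamycin resistance gene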

SMILES	EC50
Cc1ccc2c(c1)=C(c1sc(N(C)c3ccc(O)cc3)nc1O)C(=O)N=2	6.72 µM
COCCn1c(-c2cc(OC)c(OC)c(OC)c2)nc2oc3cc(OC)ccc3c(=O)c2c1=O	> 15 µM (inactive)
O=C(/C=C/c1cn(-c2ccccc2)nc1-c1ccccc1)Nc1ccc(C(=O)O)cc1	3.76 µM
CC(C)=CCc1cc([C@@H]2CC(=O)c3ccc(O)c(CC=C(C)C)c3O2)ccc1O	3.63 µM
COc1ccccc1C(=O)NNC(=S)NC(=O)c1cc(OC)c(OC)c(OC)c1	0.98 µM
O=c1c2c(nc(NCCO)n1CC1CCCCC1)-c1ccccc1CC21CCCC1	4.16 µM
O=C1c2ccccc2C2=Nc3ccccc3SC(c3ccc(Cl)cc3)C12 (configuration not stated)	3.9 µM
Cc1n[nH]c(=O)c2c(NC(=O)CSc3nnnn3-c3ccccc3)oc(C)c12	> 15 µM (inactive)
Cc1ccc(C(C)C)cc1NC(=O)Nc1ccc([N+](=O)[O-])cc1	3.75 µM
O=C(Nc1nnc(-c2ccccn2)o1)c1cccc(Cl)c1	1.66 µM
Cc1cc(C)n(-c2nc(SCC(=O)O)c3c4c(sc3n2)CCCC4)n1	5.93 µM
CC(C)C[C@H](NC(=O)c1nc[nH]c1C(=O)NCc1ccccc1)C(=O)OCc1ccccc1	5.01 µM
Cc1cc2oc(=O)cc(CN(C)Cc3ccccc3)c2cc1C(C)C	4.52 µM
O=[N+]([O-])c1cccc(/C=C/c2ccc3cccc(O)c3n2)c1	2.25 µM
O=C(Nc1cccc(-c2csc(Nc3ccc(Cl)cc3)n2)c1)c1ccccc1	4.45 µM
N=c1c2c(-c3ccccc3)c(-c3ccccc3)oc2ncn1Cc1ccco1	3.27 µM
O=[N+]([O-])c1cc(Cl)cc(/C=N/Nc2nc3ccccc3s2)c1O	1.54 µM
CC(C)Oc1ccc(C(=O)Nc2nnc(C3=COCCO3)o2)cc1	0.794 µM
CC1(C)Cc2c(cnn2-c2ccccc2)C(NC(=O)CCCN2CCCC2=O)C1 (configuration not stated)	> 15 µM (inactive)
Cc1ccccc1OCC(=O)NC(=S)Nc1ccc(Br)c(C)n1	> 15 µM (inactive)
O=C(NNC1=C(C(=O)C(F)(F)F)CCC1)c1ccccc1O	0.724 µM
COc1cccc(/C=N/Nc2nc(Nc3ccccc3)nc(-n3nc(C)cc3C)n2)c1O	1.97 µM
COC(=O)[C@@H]1[C@@H](C#N)C2(c3ccccc3-c3ccccc32)N(c2ccc(Cl)cc2)N1C#N	9.76 µM
Cc1cccc(NC(=O)NCc2ccc3c(c2)OCO3)c1	> 15 µM (inactive)
Cc1cccc(C)c1OCC(=O)Nc1ccccc1N1CCCCC1	2.78 µM
Cc1cnn(-c2nc(-c3ccccc3)cc(-c3ccccc3)n2)c1	4.51 µM

SMILES	EC50
Cc1ccc(NC(=S)NC2CCSc3ccccc32)cc1C (configuration not stated)	4.63 µM
CC(C)=CCc1c2c(c3occ(-c4ccc(O)cc4)c(=O)c3c1O)C=CC(C)(C)O2	0.876 µM
Cc1cc(Br)cc(/C=N/NC(=O)c2ccc3c(c2)OCO3)c1O	1.9 µM
CC(=O)NC(c1ccc(C)cc1)c1cc(Cl)c2cccnc2c1O (configuration not stated)	1.42 µM
O=C(CSc1ccccn1)Nc1nonc1[N+](=O)[O-]	7.31 µM
COC(=O)c1c(NC(=O)c2ccn(C)n2)sc2c1CCC2	> 15 µM (inactive)
CC(C)(C)c1cc(C(=O)Nc2ccc(F)cc2)n(Cc2ccc(F)cc2)n1	3.77 µM
CC(=O)N(C1=C(Cl)C(=O)c2ccccc2C1=O)C1CCCCC1	9.36 µM
Cc1cc(Oc2ccc(Cl)cc2)nc(-c2ccccc2O)n1	> 15 µM (inactive)
Cc1onc(-c2ccccc2)c1C(=O)NNC(=S)NC(=O)c1ccc2c(c1)OCO2	0.589 µM
CCOc1ccc(-c2csc(/C(C#N)=C\c3ccc(O)c([N+](=O)[O-])c3)n2)cc1	1.99 µM
CCOc1cc(/C=C(\C#N)c2nc(-c3cccs3)c(NC(C)=O)s2)ccc1O	0.385 µM
O=C(CN(C(=O)Cn1nnc(-c2ccccc2F)n1)c1cccc2c1CCCC2)NCc1ccccc1	5.32 µM
FC(F)(F)Oc1ccc(NC(=S)Nc2ccc(OC(F)(F)F)cc2)cc1	6.49 µM
Clc1ccccc1C(c1ccccc1)(c1ccccc1)n1ccnc1	6.21 µM
CC(C(=O)NC1C(=O)N2C(C(=O)O)=C(CSc3nnnn3C)CSC12)n1cc(Br)cn1 (configuration not stated)	< 0.06 µM
CCCCCCCCCCCCCCCC[N+](C)(C)CC	2.19 µM
c1ccc(-n2c3ccccc3c3ccccc32)cc1	4.4 µM
O=C(COc1ccc(Cl)cc1Cl)Nc1ccc(C(=O)Nc2ccccc2C(=O)O)cc1	2.3 µM
CC(C)C(=O)NC(c1ccccc1)c1cc([N+](=O)[O-])c2cccnc2c1O (configuration not stated)	2.48 µM
O=C(NC(NC(=S)Nc1ccc(Cl)c(Cl)c1)C(Cl)(Cl)Cl)c1ccco1 (configuration not stated)	3.41 µM
NC(N)=N/N=C/c1ccc(N(c2ccccc2)c2ccccc2)cc1	2.06 µM
CCOC(=O)c1cnc(-n2nc(C)cc2C)nc1Nc1ccc(OC)cc1	0.185 µM
N#C/C(=N\Nc1ccc(Cl)cc1)C(N)=S	> 15 µM (inactive)
O=C(CNc1cccc2ccccc12)N/N=C/c1ccc([N+](=O)[O-])o1	1.12 µM
CCOc1cc(/C=N/Nc2cc(C)nc(-n3nc(C)cc3C)n2)ccc1O	0.853 µM

SMILES	EC50
COc1cccc(C(=O)NC(=S)Nc2ccccc2N2CCCCC2)c1	> 15 µM (inactive)
CC(=O)[C@]1(O)Cc2c(O)c3c(c(O)c2[C@@H](O[C@H]2C[C@H](N)[C@H](O)[C@H](C)O2)C1)C(=O)c1ccccc1C3=O	1.13 µM
CC(=O)NC(=S)Nc1ccc(NC(=S)NC(=O)/C=C/c2ccco2)cc1	8.72 µM
CCCOc1ccc(C(=O)NNC(=S)NC(=O)CC)cc1	0.431 µM
CC(C)=CCc1c2c(c(O)c3c(=O)c4c(oc13)-c1cc(O)c(O)cc1OC4C=C(C)C)C=CC(C)(C)O2 (configuration not stated)	1.88 µM
COc1ccc(NS(=O)(=O)c2ccc3ccccc3c2)c2ncccc12	1.2 µM
Nc1nc(CN2CCN(c3ccccc3)CC2)nc(N2CCCc3ccccc32)n1	0.879 µM
CCOc1ccc(/C=N/NC(=O)Cc2csc(Nc3cccc(C(F)(F)F)c3)n2)cc1	6.35 µM
FC(F)(F)c1ccccc1/C=N/n1c(C2CCCCC2)n[nH]c1=S	4.76 µM
COC(=O)c1ccc(CSc2n[nH]c(=S)s2)o1	3.25 µM
COCCn1c(SCC(=O)Nc2ccc(F)cc2)nc2c([nH]c3ccccc32)c1=O	> 15 µM (inactive)
COc1ccc(-c2cc3nc4n(c(=O)c3s2)CCC4)cc1	0.734 µM
CCC(C(=O)NCC1CCCO1)n1nc(C)c2sc3ccccc3c2c1=O (configuration not stated)	> 15 µM (inactive)
O=C(Nc1ccc2nc(-c3ccc4nc[nH]c4c3)[nH]c2c1)c1cccs1	15.7 µM
Cc1cccc(-n2c(N)c(-c3nc4ccccc4n3C)c3nc4ccccc4nc32)c1	2.26 µM
CCCCCCCCCCOC(=O)Cn1c(COc2ccccc2)[n+](C)c2ccccc21	7.96 µM
CSCc1nnc(NC(=O)c2ccc(S(=O)(=O)N(CC(C)C)CC(C)C)cc2)o1	0.724 µM
Oc1ccccc1/C=N/NC(=S)NC1CC2CCC1C2 (configuration not stated)	3.74 µM
c1ccc(-c2nc(N3CCCCCC3)c3ccccc3n2)nc1	1.43 µM
O=C(NCc1nc(-c2ccc(C(F)(F)F)cc2)no1)Nc1cc(Cl)cc(Cl)c1	2.31 µM
CC1CCN(c2nc(N3CCCCC3)nc(N3CCCCC3)n2)CC1	3.02 µM
NNc1nc(-c2ccccc2)c2cc(Br)ccc2n1	9.12 µM
O=S(=O)(Nc1ccc(-n2cccc2)cc1)c1ccc(Cl)c(Cl)c1	6.21 µM
COc1ccc(OC)c(/C=C/c2ccc3cccc(O)c3n2)c1	0.197 µM
O=C(Nc1nnc(-c2ccccc2Cl)o1)c1ccc(S(=O)(=O)N2CCCCCC2)cc1	0.264 µM
